The results in this text go back to publication PMC7481357, “N-terminal Myristoylation Enhanced the Antimicrobial Activity of Antimicrobial Peptide PMAP-36PW” (Frontiers in Cellular and Infection Microbiology, 2020).

No end group written: not given here.

Experiment [1] concerns P. aeruginosa GIM 1.551. The format is cell-based, Pseudomonas aeruginosa. The conditions noted are these: for MICs of different classes of antibiotics: P. aeruginosa GIM 1.551, * indicates resistant (CLSI, 2020); for MICs: GIM 1.551, 18 h. The procedure:
(§1) The MICs of Myr-36PW in vitro were measured through microdilution in accordance with the Clinical and Laboratory Standards Institute (CLSI, [2020]). The bacterial cells were cultured for 12 h at 37°C in the appropriate medium and then diluted to 1 × 10^6 CFU/mL. Equal volumes (100 μL) of bacterial cell suspension and two-fold serially diluted different concentrations peptides (0.0039–256 μg/mL) were added to each well of the sterile 96-well plate. The samples were incubated for 18 h at 37°C. After incubation, the MICs of the peptides were determined by evaluating the growth based on the OD600 of the cultures.

Experiment [2] deals with S. aureus ATCC 25923. The format is cell-based, Staphylococcus aureus. The conditions noted are these: for MICs of different classes of antibiotics: S. aureus ATCC 25923, * indicates resistant (CLSI, 2020); for MICs: ATCC 25923, 18 h. The procedure:
as §1

The subject of experiment [3] is L. monocytogenes CICC 21634. The format is cell-based, Listeria monocytogenes. The conditions noted are these: for MICs of different classes of antibiotics: L. monocytogenes CICC 21634, * indicates resistant (CLSI, 2020); for MICs: CICC 21634, 18 h. The procedure: as §1
Experiment [4] concerns S. typhimurium SL 1344. The format is cell-based, Salmonella typhimurium. The conditions noted are these: for MICs of different classes of antibiotics: S. typhimurium SL 1344, * indicates resistant (CLSI, 2020); for MICs: SL 1344, 18 h. The protocol: as §1
Experiment [5] concerns P. aeruginosa GIM 1.551. The format is cell-based, Pseudomonas aeruginosa. The conditions noted are these: GIM 1.551, 1 h. The procedure:
(§2) The effects of abiotic factors on the antibacterial activity of Myr-36PW were investigated by MIC assay (Xi et al., [2013]; Zhong et al., [2019]). S. aureus ATCC 25923 and P. aeruginosa GIM 1.551 overnight cultures were diluted to 1 × 10^6 CFU/mL, and the MICs of peptides in MHB with different concentration of physiological salts (150 mM NaCL, 2 mM CaCL2) were determined. And after the peptides incubated in 10% mice serum for 1 h at 37°C, MICs of peptides against S. aureus ATCC 25923 and P. aeruginosa GIM 1.551 were determined. The MICs in MHB in the absence of physiological salts and serum were used as the control group.
(§3) Salt and serum stability in vitro were indicated by MIC assay. The concentrations of NaCl and CaCl2 were physiological concentration. 10% mice serum was inactivated by heat treatment for 15 min at 60 ℃。The control group was measured in the absence of physiological salts or serum in MHB.

The test system of experiment [6] is S. aureus ATCC 25923. The format is cell-based, Staphylococcus aureus. As to conditions: ATCC 25923, 1 h. The protocol: as §2, §3

With `NCC[C@H](O)C(=O)N[C@@H]1C[C@H](N)[C@@H](O[C@H]2O[C@H](CN)[C@@H](O)[C@H](O)[C@H]2O)[C@H](O)[C@H]1O[C@H]1O[C@H](CO)[C@@H](O)[C@H](N)[C@H]1O` [Amikacin], the “MICs of different classes of antibiotics” value in experiment [1] is >128* μg/mL; in experiment [2], 4 µg/mL; in experiment [3], 128* μg/mL; in experiment [4] it was 32 µg/mL.
On the same counts, the results for `CC[C@H]1OC(=O)[C@H](C)[C@@H](O[C@H]2C[C@@](C)(OC)[C@@H](O)[C@H](C)O2)[C@H](C)[C@@H](O[C@@H]2O[C@H](C)C[C@H](N(C)C)[C@H]2O)[C@](C)(O)C[C@@H](C)CN(C)[C@H](C)[C@@H](O)[C@]1(C)O` [Azithromycin] are 128* μg/mL, 64* μg/mL, 64* μg/mL and >128* μg/mL.
As for `CNC(C)C1CCC(N)C(OC2C(N)CC(N)C(OC3OCC(C)(O)C(NC)C3O)C2O)O1` (stereo not drawn) [Gentamicin], the “MICs of different classes of antibiotics” value was 128* μg/mL in experiment [1], 4 µg/mL in experiment [2], 32* μg/mL in experiment [3] and 8 µg/mL in experiment [4].
For the compound Colistin, the “MICs of different classes of antibiotics” value in experiment [1] is 4* μg/mL; in experiment [2], 16* μg/mL; in experiment [3], 8 µg/mL; in experiment [4], 2 µg/mL.
As for “GRFRRLRKKTRKRLKKIGKVLKWIPPIVGSIPLGCG [PMAP-36]”, the entries for the “MICs, CaCl2” value in experiment [5] and in experiment [6] were 2 µg/mL and 0.0625 µg/mL, respectively. Besides, the “MICs, Control” value in experiment [5] came to 2 µg/mL. The “MICs, NaCl” value in experiment [5] stood at 2 µg/mL; in experiment [6], 0.0625 µg/mL. The “MICs, Serum” value in experiment [5] came to 2 µg/mL; in experiment [6] it was 0.0625 µg/mL. Also, the MICs in experiment [1] stood at 1 µg/mL; in experiment [2], 0.0156 µg/mL; in experiment [3] it was 4 µg/mL; in experiment [4], 32 µg/mL.
Consider “GRFRRLRKKTRKRLKKIGKVLKWIWWIVGSIPLGCG [PMAP-36PW]”, for which, in experiment [5], the “MICs, CaCl2” value came to 1 µg/mL; the “MICs, Control” value stood at 1 µg/mL; the “MICs, NaCl” value was 1 µg/mL; the “MICs, Serum” value came to 1 µg/mL. The same compound displayed an MICs in experiment [1] of 0.5 µg/mL. In experiment [2], this compound came in with an MICs of 0.0078 µg/mL. In addition, in experiment [3], the MICs worked out at 2 µg/mL. The compound also gave an MICs in experiment [4] of 16 µg/mL.
In the case of Polymyxin B, the “MICs of different classes of antibiotics” value in experiment [1] was 4* μg/mL; in experiment [2], 16* μg/mL; in experiment [3], 8 µg/mL; in experiment [4] it was 2 µg/mL.
